Test in all cases: CellTiter-Glo proliferation assay 72 hrs, with or without FGF2
Type in all cases: cell-based
A general note: Cellular ATP, detected with luciferase, serves as a proxy for viable cell number.

In experiment [1] the test system is LS411N. As to conditions: Homo sapiens, LS-411N. The method, then:
(§1) All cell lines were purchased from ATTC (SK-MEL-5, SK-MEL-24, UACC-62, COLO 741, COLO-800, WM-266-4, Colo205, LS411N, SW 1417), ECACC (MDST8), DSMZ (CL-34) and NCI (LOX IMVI). […] Cell lines were cultured in 37° C. and 5% CO2 incubator and expanded in T-75 flasks. In all cases cells were thawed from frozen stocks, expanded through passage using 1:3 dilutions, counted and assessed for viability using a ViCell counter (Beckman-Coulter), prior to plating in 96-well or 6-well plates. To split and expand cell lines, cells were dislodged from flasks using 0.25% Trypsin-EDTA (GIBCO, Catalog number 25200). All cell lines were determined to be free of mycoplasma contamination as determined by a PCR detection methodology performed at Idexx Radii (Columbia, Mo., USA) and correctly identified by detection of a panel of SNPs.
(§2) The Compound of Formula (I) and Compound H dissolved in 100% DMSO (Cellgro, catalog number 25-290-CQC) at concentrations of 10 mM and stored at −20° C. until use. Compounds were arrayed in 2 ml deep 96-well plates (Greiner bio-one, catalog number 780271) serially diluted 3-fold seven times yielding concentration ranges from 22 nM to 16200 nM. Recombinant Human FGF basic was purchased from R&D system (Catalog number 233-FB), and reconstituted at 50 μg/ml in sterile PBS. It was used at a fixed concentration 100 ng/ml in all experiments.
(§3) For CellTiter-Glo™ assays, cells were dispensed into tissue culture treated 96-well plates (Costar, catalog number 3904) with a final volume of 80 μL of medium and at density of 3000 cells per well. 12 to 24 hrs after plating, 20 μL of each compound dilution series were transferred to plates containing the cells, resulting in compound concentration ranges of 2700 nM to 3.7 nM by 3-fold dilutions and a final DMSO concentration of 0.16%. The total volume in each well was […]. Plates were incubated for 72 hrs and the effects of compounds on cell proliferation was determined using the CellTiter-Glo™ Luminescent Cell Viability Assay (CTG, Promega) and a Victor™ X4 plate reader (Perkin Elmer). For real-time growth assays cells were seeded into xCELLigence E-plates (Roche catalogue number 05232368001) at a density of 4000 cells per well in a total of 90 μl of media and 24 hrs after plating, 11 μl of media with or without compound was added to the wells. 2-4 replicate wells were plated for all cell lines and treatment groups with the exception of LGX818+FGF2 treated COLO 741 cells (N=1). Where indicated final concentrations of compounds and growth factor were 1 uM for Compound H, 100 ng/ml for FGF2, and either 100 nM (SK-MEL-5) or 500 nM (COLO 741) for the Compound of Formula (I). Cells were continuously monitored every two hours for seven days with the xCELLigence real-time impedance based cell analyzer. Impedance was measured using the electrodes on the E-plates, with increasing surface area coverage of cells creating greater electrode impedance. […] In all cases cell index values were normalized to a timepoint immediately following the addition of compound.
(§4) To determine whether FGFRs can rescue a subset of BRAFV600E mutant melanoma cell lines treated with the Compound of Formula (I), its anti-proliferative effects were examined in eleven T1799 mutant BRAF cell lines either in the presence or absence of the FGFR-activating ligand FGF2. […] Thus, the presence of FGF2 is able to rescue a set of BRAFV600E melanoma-derived cell lines from the anti-proliferative effects of the B-Raf inhibitor of Formula (I). Furthermore, similar effects are also observed in BRAFV600E mutant cell lines derived from CRC tumors.
(§5) Mutant (mut) and wildtype (wt) status was determined from published data. […] PTEN mut designations represent a summary call based on mutation, gene copy number, and mRNA expression information for the PTEN gene.

Experiment [2] has as its system UACC-62. Conditions: Homo sapiens. The protocol: as §1, §2, §3, §4, §5
Experiment [3] relates to COLO 205. Conditions: Homo sapiens. The protocol:
as §1, §2, §3, §4, §5

Experiment [4] concerns MDST8. Conditions: MDST8 (V600K). The method, then: as §1, §2, §3, §4, §5
In experiment [5] the test system is COLO 741. As to conditions: Homo sapiens. The protocol: as §1, §2, §3, §4, §5
Experiment [6] has as its system COLO-800. As to conditions: Homo sapiens. The method, then:
as §1, §2, §3, §4, §5

Experiment [7] has as its system CL-34. The protocol:
as §1, §2, §3, §4, §5

For experiment [8], the system named is SW1417. Conditions: Homo sapiens. The method, then: as §1, §2, §3, §4, §5
In experiment [9] the test system is WM-266-4. Conditions: Homo sapiens, WM-266-4 (V600D). The method, then: as §1, §2, §3, §4, §5
In experiment [10] the test system is SK-MEL-5. As to conditions: Homo sapiens. The method, then:
as §1, §2, §3, §4, §5

Experiment [11] deals with SK-MEL-24. As to conditions: Homo sapiens. The protocol:
as §1, §2, §3, §4, §5

Where [12] appears, read: with 100 ng/ml FGF2, read-out: LGX818 + FGF2 IC50.
Setting [13] is: without FGF2, read-out: LGX818 IC50.

Read-outs that look alike come from different tables or passages of the source.

A word on the IC50: it is the concentration at which inhibition is half-maximal. In the case of `COC(=O)N[C@@H](C)CNc1nccc(-c2cn(C(C)C)nc2-c2cc(Cl)cc(NS(C)(=O)=O)c2F)n1` [Compound of Formula (I)], the IC50 in [1] (setting [12]) is at least 9.23 µM; in [1] (setting [13]) it was 0.185 µM; in experiment [2] (UACC-62, with 100 ng/ml FGF2, read-out: LGX818 + FGF2 IC50), 0.004 µM; in [2] (UACC-62, without FGF2, read-out: LGX818 IC50), 0.002 µM; in [3] (Colo 205, with 100 ng/ml FGF2, read-out: LGX818 + FGF2 IC50), 0.005 µM; in experiment [3] (Colo 205, without FGF2, read-out: LGX818 IC50), 0.004 µM. Further, the concentration for half-maximal inhibition (IC50) in [4] (setting [12]) was at least 10 µM; in experiment [4] (setting [13]), 0.141 µM; in experiment [5] (COLO 741, with 100 ng/ml FGF2, read-out: LGX818 + FGF2 IC50), 2.65 µM; in experiment [5] (COLO 741, without FGF2, read-out: LGX818 IC50), 0.053 µM; in experiment [6] (COLO-800, with 100 ng/ml FGF2, read-out: LGX818 + FGF2 IC50), 0.012 µM; in [6] (COLO-800, without FGF2, read-out: LGX818 IC50), 0.009 µM. In addition, the 50% inhibitory concentration (IC50) in experiment [7] (CL-34, without FGF2, read-out: LGX818 IC50) stood at 0.038 µM; in [7] (read-out: LGX818 + FGF2 IC50) it was 0.73 µM; in [8] (SW1417, with 100 ng/ml FGF2, read-out: LGX818 + FGF2 IC50), 0.364 µM; in [8] (SW1417, without FGF2, read-out: LGX818 IC50) it was 0.165 µM; in experiment [9] (setting [12]), 0.004 µM; in experiment [9] (setting [13]), 0.003 µM. Besides, the IC50 in [10] (SK-MEL-5, with 100 ng/ml FGF2, read-out: LGX818 + FGF2 IC50) is over 1 µM; in experiment [10] (SK-MEL-5, without FGF2, read-out: LGX818 IC50), 0.015 µM; in [11] (SK-MEL-24, with 100 ng/ml FGF2, read-out: LGX818 + FGF2 IC50) it was 0.369 µM; in [11] (SK-MEL-24, without FGF2, read-out: LGX818 IC50), 0.47 µM.

These data come from patent US10548894B2, “Combination therapy” (Array BioPharma Inc., priority 2013, dated 2020).
